Values of other authors, collected in patent US20170071839A1, “Personal care and medicinal products incorporating organosulfur groups” (priority 2015, published 2017).
Where two headings read alike, the source gives them in different places.

Key:
[1] = after garlic consumption
[2] = shelf stability
[3] = after fresh garlic (e.g. 25 g) or pure allicin (60 mg)
[4] = not given; remark: listed apart in the source
NFkB = conditions: macrophages
[5] = tested on: total glutathione level of cells
[6] = tested on: acetaminophen (Tylenol) poisoning
[7] = tested on: Salmonella typhimurium and E. coli
[8] = target: NFkB signal transduction proteins p50 and P65 (Homo sapiens, UniProt P19838+Q04206)

C=CCSC [AMS, allyl methyl sulfide]
time of disappearance from breath [1]: 20 h

C=CCS[S+]([O-])CC=C (stereo not drawn) [Allicin, DiAllylThioSulfinate]
half-life [2]: weeks to months | Reaction in Blood Product (moles): AllylSH (1.6) | time to be metabolized to allyl mercaptan (red blood cells exposed to allicin): less than one | detection in blood, urine, or stool [3]: undetectable

C=CCS [AllylSH, AllylThiol]
solubility [4]: water soluble | time of disappearance from breath [1]: ≤ 1 h

N[C@@H](CSSC[C@H](N)C(=O)O)C(=O)O [Cysteine disulfide, Cystine]
solubility [4]: low solubility

C=CCSSCC=C [DADS, Diallyl Disulfide]
Reaction in Blood Product (moles): AllylSH (0.8)

C=CCSC[C@H](NC(C)=O)C(=O)O [N-acetyl-S-allylcysteine]
effect on Cu2+ induced LDL oxidation (LDL): significantly reduce

N[C@@H](CSN=O)C(=O)O [S-Nitrosocysteine]
concentration that nearly completely inhibits the activation of NFkB (NFkB): 1 micro-mole

C=CCSC[C@H](N)C(=O)O [S-allylcysteine]
effect on Cu2+ induced LDL oxidation (LDL): significantly reduce

C=CCSSC[C@H](N)C(=O)O [SAMC, S-AllylMercaptoCysteine]
total glutathione level of cells [5]: significantly increase the total glutathione level | Reaction in Blood Product (moles): AllylSH (0.8) | protection from acetaminophen poisoning ([6]; post treatment, single dose 200 mg/kg): protective | protection from acetaminophen poisoning ([6]; pretreatment): protect mice | effect on Cu2+ induced LDL oxidation (LDL): significantly reduce

CCCSSCCC [di-n-proply disulfide]
antibiotic effectiveness [7]: antibiotic effectiveness

CCCS[S+]([O-])CCC (stereo not drawn) [dipropylthiosulfinate]
nematicidal activity (nematicidal activity): most effective compound

C=CCS[S+](C)[O-] (stereo not drawn) [methyl allyl thiosulfinate]
activity against E-coli O157:H7 (E-coli O157:H7): effective

CS[S+](C)[O-] (stereo not drawn) [methyl methane thiosulfinate]
activity against E-coli O157:H7 (E-coli O157:H7): effective

C=CCSSCCC [n-propyl allyl disulfide]
antibiotic effectiveness [7]: antibiotic effectiveness

[N]=O [nitric oxide]
concentration that inhibited the DNA binding activity [8]: 20-100 nano mole

S-allylcysteine sulfoxide [alliin]
effect on Cu2+ induced LDL oxidation (LDL): significantly reduce
